Assay [1] is described as follows: Inhibition of mouse Hepa-1c1c7 cells assessed as cell viability. The assay is classed as cell-based.
Assay [2] is described as follows: Chemoprevention index, ratio of IC50 for mouse Hepa-1c1c7 cells to drug level required to double NADPH:quinone reductase activity in mouse Hepa-1c1c7 cells. Format: functional.

SMILES strings stand for the structures. Values after ≈ are worked out from the molar mass of the structure shown. A value given as a limit tells only on which side of the number the result lay.

As for `COc1cc(OC)c2c(c1C=O)O[C@H](c1ccccc1)CC2=O`, in assay [1], the half-inhibitory concentration (IC50) is > 10 µg/mL. In addition, in assay [2], the Ratio is given as >3.9.

With `CC1=C[C@@H]2[C@@H](CC1)[C@](C)(O)CC[C@H]2C(C)C`, the IC50 in assay [1] is > 5 µg/mL. For the same compound, in assay [2], the Ratio was >2.2.

Take `CO/C(=C\C(=O)c1c(OC)cc2c(c1OC)C=CC(C)(C)O2)c1ccccc1`: the IC50 in assay [1] was found to be 9.6 µg/mL (≈ 25.2 µM). The Ratio in assay [2] amounted to 8.

For the compound `C=C(C)[C@@H](O)Cc1c(OC)cc(OC)c2c1O[C@H](c1ccccc1)CC2=O`, the concentration for half-maximal inhibition (IC50) in assay [1] turned out to be 19.3 µg/mL (≈ 52.4 µM). In addition, the Ratio in assay [2] is on record as 4.4.

Consider `COc1cc2c(c3oc(-c4ccccc4)cc(=O)c13)C=CC(C)(C)O2` [CANDIDIN], for which the IC50 in assay [1] came to 4.5 µg/mL (≈ 13.5 µM). The Ratio in assay [2] was 1.

On to `COc1cc(OC)c2c(c1CC=C(C)C)O[C@H](c1ccccc1)CC2=O` [CANDIDONE], for which the 50% inhibitory concentration (IC50) in assay [1] was found to be 4.1 µg/mL (≈ 11.6 µM). For the same compound, the Ratio in assay [2] is recorded as 0.9.

On to `COc1cc2c(c(OC)c1C(=O)CC(=O)c1ccc3c(c1)OCO3)C=CC(C)(C)O2` [PONGAPINONE A], for which, in assay [1], the IC50 worked out at 23.8 µg/mL (≈ 58 µM). In assay [2], the Ratio came to 4.8.

For the compound `COc1cc(OC)c2c(c1CC=C(C)C)O[C@H](c1ccc3c(c1)OCO3)CC2=O` [PONGAPINONE B], the IC50 in assay [1] amounted to 19.1 µg/mL (≈ 48.2 µM). In addition, in assay [2], the Ratio is on record as 7.6.

In the case of `COc1cc2c(c(OC)c1C(=O)/C=C(\O)c1ccccc1)C=CC(C)(C)O2` [PRAECANSONE B], the IC50 in assay [1] was 6.5 µg/mL (≈ 17.7 µM). Also, in assay [2], the Ratio amounted to 1.8.

With `C[S+]([O-])CCCCN=C=S` (stereo not given) [SULFORAPHANE], the IC50 in assay [1] worked out at 2.1 µg/mL (≈ 11.8 µM). The Ratio in assay [2] worked out at 24.1.
